Reference: US7618626B2, “Combination treatment for non-hematologic malignancies” (Pfizer Inc, priority 2004, dated 2009)
Like-named read-outs stand apart in the source and are kept apart here.

B1: 2.13.2: fully human anti-IGF-1R monoclonal antibody; hybridoma ATCC PTA-2788 (antibody)
heavy: EVQLLESGGGLVQPGGSLRLSCTASGFTFSSYAMNWVRQAPGKGLEWVSAISGSGGTTFYADSVKGRFTISRDNSRTTLYLQMNSLRAEDTAVYYCAKDLGWSDSYYYYYGMDVWGQGTTVTVSSASTKGPSVFPLAPCSRSTSESTAALGCLVKDYFPEPVTVSWNSGALTSGVHTFPAVLQSSGLYSLSSVVTVPSSNFGTQTYTCNVDHKPSNTKVDKTVERKCCVECPPCPAPPVAGPSVFLFPPKPKDTLMISRTPEVTCVVVDVSHEDPEVQFNWYVDGVEVHNAKTKPREEQFNSTFRVVSVLTVVHQDWLNGKEYKCKVSNKGLPAPIEKTISKTKGQPREPQVYTLPPSREEMTKNQVSLTCLVKGFYPSDIAVEWESNGQPENNYKTTPPMLDSDGSFFLYSKLTVDKSRWQQGNVFSCSVMHEALHNHYTQKSLSLSPGK
light: DIQMTQFPSSLSASVGDRVTITCRASQGIRNDLGWYQQKPGKAPKRLIYAASRLHRGVPSRFSGSGSGTEFTLTISSLQPEDFATYYCLQHNSYPCSFGQGTKLEIKRTVAAPSVFIFPPSDEQLKSGTASVVCLLNNFYPREAKVQWKVDNALQSGNSQESVTEQDSKDSTYSLSSTLTLSKADYEKHKVYACEVTHQGLSSPVTKSFNRGEC

Tests used:
[1] = tested on: hormone-receptor-positive breast cancer; conditions: cited from earlier work
[2] = target: T1, IGF-1R (Homo sapiens, UniProt P08069); assay: IGF-1R phosphotyrosine signal in 3T3-IGF-1R tumors; assay type: in vivo; conditions: FIG. 4
T1 construct: expressed in transfected cells; host or cells: NIH-3T3 (mouse fibroblast) transfectant, grown as tumors in athymic mice

[3] = tested on: tumors of the transfectant IGF-1R over-expressing NIH-3T3 cell line; assay: 3T3-IGF-1R tumor growth in vivo (athymic mice, intraperitoneal administration); conditions: FIG. 5
Method: When incubated with cells, fully human monoclonal antibodies that are highly specific and potent inhibitors of IGF-1-induced receptor autophosphorylation induced down-regulation of IGF-1R by receptor internalization. […] The serum concentration of anti-IGF-1R antibodies that led to 50% growth inhibition was 20 μg/ml at Day 1, and 13 μg/ml at Day 9. Similar anti-tumor studies were extended to human tumor xenograft models. As a single agent, anti-IGF-1R antibodies inhibited the growth of several xenograft models including breast, lung and colorectal carcinomas.

Molecule | reduction of recurrence ([1]; post-menopausal women) | reduction of recurrence ([1]; pre-menopausal women) | IGF-1R phosphotyrosine signal in 3T3-IGF-1R tumors [2] | 3T3-IGF-1R tumor growth in vivo [3]
CC/C(=C(\c1ccccc1)c1ccc(OCCN(C)C)cc1)c1ccccc1 [Tamoxifen] | 40-50% | 30-50% | – | –
B1 | – | – | reduce IGF-1R phosphotyrosine signal | inhibits 3T3-IGF-1R tumor growth in vivo
